These are literature values, as cited in patent US20240238319A1, “CEREAL-BASED COMPOSITIONS WITH A MIX OF GALACTO-OLIGOSACCHARIDES/FRUCTO- OLIGOSACCHARIDES AND USES THEREOF FOR IMPROVING IRON ABSORPTION” (COMPAGNIE GERVAIS DANONE, priority 2021, published 2024).

The structures appear in SMILES notation.

The conditions of the series: when providing at least 80% of the WHO recommended dietary allowance.

As to `[Fe]` [iron], the “increased risk of diarrhea” value is 15%.
